Data on 20 compounds can be found in patent US20080249080A1, “Benzodiazepine Derivatives and Uses Thereof on Medical Field” (priority 2005, published 2008).

The test system of assay [1] is K562 cell line. In words: DNA fragmentation, K562 leukemic cell line. To be noted: 10 μM, 24 and 48 hours, FIGS. 18, 20, 21. Type of assay: cell-based, human. Here is the method: (§1) Subsequently, the same cell lines, except OVCAR3, were tested with fourteen new synthetic compounds at 10 μM concentration for 24 and 48 hours: eleven induced the expected cellular death.

Assay [2] deals with ARO anaplastic thyroid carcinoma cell line. In words: DNA fragmentation, ARO. It is filed as cell-based, human. To be noted: 10 μM, 24 and 48 hours. As for the experimental part: (§2) The authors also have tested compounds according to the invention, in particular RS-678 and RS-779 compounds, also on OVCAR3 ovary carcinoma cell lines, ARO anaplastic thyroid and NPA papillary thyroid human carcinoma cell lines.
as §1

For assay [3], the system named is NPA papillary thyroid carcinoma cell line. In words: DNA fragmentation, NPA. It is filed as cell-based, human. To be noted: 10 μM, 24 and 48 hours. Here is the method: as §2, §1
Another assay relates to HL-60 and Jurkat cells. The following applies: laboratory experiments; cited from earlier work.
A further assay relates to ARO cell line. In words: Percentage of dead cells, ARO. Type of assay: cell-based, human. To be noted: after 24 hours.
For another assay, the system named is NPA cell line. In words: Percentage of apoptosis, NPA. The following applies: after 24 hours. It is filed as cell-based, human.
For assay [4], the system named is K562 cell line. As to the kind of experiment: Percentage of apoptosis, K562. Type of assay: cell-based, human. To be noted: after 24 hours.
For assay [5], the system named is tested cell lines (K562, ARO, NPA). In words: Relative cellular death in the tested cell lines. It is filed as cell-based, human. As for the experimental part:
as §1

The test system of assay [6] is RET/C634R and RET/M918T mutants. To be noted: cited from earlier work.
Assay [7] concerns RET/E768D, RET/L790F, RET/Y791F, RET/A883F and RET/S891A mutants. To be noted: cited from earlier work.
Assay [8] has as its system RET/V804L and RET/V804M mutants. The following applies: cited from earlier work.
Assay [9] concerns K562 cell line. As to the kind of experiment: DNA fragmentation, K562 leukemic cell line. Type of assay: cell-based, human. To be noted: 5, 10, 15 μM, 8, 16 and 24 hours, FIG. 1 A, B.
The test system of assay [10] is mixed lymphocytic cultures from marrow or peripheral blood of patients suffering from chronic myelogenous leukemia. As to the kind of experiment: DNA fragmentation, mixed lymphocytic cultures of CML patients. Type of assay: cell-based, human. The following applies: samples from patients (some Glivec resistant); 10 μM; 24, 48 and 72 hours; FIGS. 12-14.

Turning to `CCOC(=O)CC1c2cccn2S(=O)(=O)c2ccccc2N1C(=O)c1ccc(F)cc1` (stereo not drawn) [RS-2652, ethyl 10,11-dihydro-10-(4-fluorobenzoyl)pyrrolo[1,2-b][1,2,5]benzothiadiazepine-11-acetate 5,5-dioxide], the DNA fragmentation entry (in the assay on K562 cell line [1]; in assay [2]; in assay [3]) was “DNA fragmentation” throughout.
Consider `CC[C@@]1(O)C(=O)OCc2c1cc1n(c2=O)Cc2cc3ccccc3nc2-1` [camptothecin], for which the induction of apoptosis result in the assay on HL-60 and Jurkat cells is recorded as “able to induce apoptosis”.
As to `CCOC(=O)C1c2cccn2S(=O)(=O)c2ccccc2N1C(=O)c1ccccc1` (stereo not drawn) [RS-2629, ethyl 10,11-dihydro-10-(benzoyl)pyrrolo[1,2-b][1,2,5]benzo-thiadiazepine-11-carboxylate 5,5-dioxide], the DNA fragmentation entry (in the assay with K562 cell line [1]; in [2]; in [3]) was “DNA fragmentation” each time. Also, in the assay on ARO cell line, the “percentage of dead cells” value is “approximately 60%”. Moreover, the percentage of apoptosis is 80% in the assay with NPA cell line and 85% with K562 cell line [4]. The “cellular death relative to other compounds” value in [5] was “greater cellular death”.
As to `O=S1(=O)c2ccccc2NC(CO)c2cccn21` (stereo not drawn) [RS-750, 10,11-dihydropyrrolo [1,2-b][1,2,5]benzothiadiazepine-11-methanol 5,5-dioxide], the DNA fragmentation result (with K562 cell line [1]; in assay [2]; in assay [3]) was “not present” in each case.
With `CCOC(=O)CC1c2cccn2S(=O)(=O)c2ccccc2N1C(=O)c1cccc2ccccc12` (stereo not drawn) [RS-2661, ethyl 10,11-dihydro-10-(1-naphtoyl)pyrrolo[1,2-b][1,2,5]benzothiadiazepine-11-acetate 5,5-dioxide], the DNA fragmentation entry (in the assay on K562 cell line [1]; in [2]; in assay [3]) was “DNA fragmentation” throughout.
As to `COc1cccc2c1C(=O)c1c(O)c3c(c(O)c1C2=O)C[C@@](O)(C(C)=O)C[C@@H]3O[C@H]1C[C@H](N)[C@H](O)[C@H](C)O1` [daunoribucin], the induction of apoptosis entry with HL-60 and Jurkat cells is reported as “able to induce apoptosis”.
With `Cc1ccc(-c2nn(C(C)(C)C)c3ncnc(N)c23)cc1` [PP1], the “block of the transforming activity” value in assay [6] is “able to block”. Moreover, in [7], the “inhibition of in vivo self-phosphorylation” value is given as “inhibited effectively”. For the same compound, the “sensitivity to the action of inhibitors” value in assay [8] was “less sensitive”.
For the compound `COC(=O)CC1c2cccn2N(C)c2ccccc2N1C(=O)c1ccc(OC)cc1` (stereo not drawn) [RS-421, methyl 10,11-dihydro-5-methyl-10-(4-metoxybenzoyl)-5H-pyrrolo[1,2-b][1,2,5]-benzotriazepine-11-acetate], the DNA fragmentation entry (in the assay on K562 cell line [1]; in [2]; in assay [3]) was “DNA fragmentation” each time.
As for `COC(=O)CC1c2cccn2N(C)c2ccccc2N1C(=O)c1ccccc1` (stereo not drawn) [RS-337, methyl 10,11-dihydro-5-methyl-10-benzoyl-5H-pyrrolo[1,2-b][1,2,5]-benzotriazepine-11-acetate], the DNA fragmentation result (in the assay with K562 cell line [1]; in assay [2]; in assay [3]) was “DNA fragmentation” each time.
`COc1cc([C@@H]2c3cc4c(cc3[C@@H](O[C@@H]3O[C@@H]5CO[C@@H](C)O[C@H]5[C@H](O)[C@H]3O)[C@H]3COC(=O)[C@H]23)OCO4)cc(OC)c1O` [etoposide]: the induction of apoptosis result in the assay on HL-60 and Jurkat cells is recorded as “able to induce apoptosis”.
With `CCOC(=O)CC1c2cccn2S(=O)(=O)c2ccccc2N1C(=O)c1ccccc1` (stereo not drawn) [RS-2645, ethyl 10,11-dihydro-10-(benzoyl)pyrrolo[1,2-b][1,2,5]benzo-thiadiazepine-11-acetate 5,5-dioxide], the DNA fragmentation entry (in the assay on K562 cell line [1]; in assay [2]; in [3]) was “DNA fragmentation” each time. Further, the “cellular death relative to other compounds” value in assay [5] is given as “greater cellular death”.
Regarding `CCOC(=O)CC1c2cccn2S(=O)(=O)c2ccccc2N1C(=O)c1ccc(Cl)cc1` (stereo not drawn) [RS-2660, ethyl 10,11-dihydro-10-(4-chlorobenzoyl)pyrrolo[1,2-b][1,2,5]benzothiadiazepine-11-acetate 5,5-dioxide], the DNA fragmentation entry (in the assay with K562 cell line [1]; in assay [2]; in assay [3]) was “DNA fragmentation” throughout.
Take `O=C(O)C1Nc2ccccc2S(=O)(=O)n2cccc21` (stereo not drawn) [RS-735, 10,11-dihydropyrrolo[1,2-b][1,2,5]benzothiadiazepine-11-carboxylic 5,5-dioxide acid]: the DNA fragmentation result (with K562 cell line [1]; in assay [2]; in [3]) was “not present” in each case. In the assay with K562 cell line [9], the “apoptosis / DNA fragmentation” value is listed as “not able to produce the DNA fragmentation”.
Turning to `CCOC(=O)C1c2cccn2S(=O)(=O)c2ccccc2N1C(=O)c1ccc(F)cc1` (stereo not drawn) [RS-2632, ethyl 10,11-dihydro-10-(4-fluorobenzoyl)pyrrolo[1,2-b][1,2,5]benzothiadiazepine-11-carboxylate 5,5-dioxide], the DNA fragmentation entry (in the assay on K562 cell line [1]; in assay [2]; in [3]) was “DNA fragmentation” each time.
On to `CCOC(=O)CC1Nc2ccccc2S(=O)(=O)n2cccc21` (stereo not drawn) [RS-752, ethyl 10,11-dihydropyrrolo[1,2-b][1,2,5]benzothiadiazepine-11-acetate 5,5-dioxide], for which the DNA fragmentation result (with K562 cell line [1]; in [10]; in assay [2]; in [3]) was “DNA fragmentation” in each case.
For `CCOC(=O)C1c2cccn2S(=O)(=O)c2ccccc2N1C(=O)c1cccc2ccccc12` (stereo not drawn) [RS-2631, ethyl 10,11-dihydro-10-(1-naphtoyl)pyrrolo[1,2-b][1,2,5]benzo-thiadiazepine-11-carboxylate 5,5-dioxide], the DNA fragmentation result (with K562 cell line [1]; in assay [2]; in [3]) was “DNA fragmentation” in each case.
In the case of `COc1cccc2c1C(=O)c1c(O)c3c(c(O)c1C2=O)C[C@@](O)(C(=O)CO)C[C@@H]3O[C@H]1C[C@H](N)[C@H](O)[C@H](C)O1` [doxorubicin], the induction of apoptosis result in the assay with HL-60 and Jurkat cells is recorded as “able to induce apoptosis”.
Regarding `CCOC(=O)C1c2cccn2S(=O)(=O)c2ccccc2N1C(=O)c1ccc(Cl)cc1` (stereo not drawn) [RS-2630, ethyl 10,11-dihydro-10-(4-chlorobenzoyl)pyrrolo[1,2-b][1,2,5]benzothiadiazepine-11-carboxylate 5,5-dioxide], the DNA fragmentation entry (in the assay with K562 cell line [1]; in [2]; in [3]) was “DNA fragmentation” throughout. Also, the “percentage of dead cells” value in the assay with ARO cell line is on record as “approximately 60%”. The percentage of apoptosis with NPA cell line came to 80%; with K562 cell line [4], 85%. Besides, the “cellular death relative to other compounds” value in [5] was “greater cellular death”.
On to `O=C(OC(c1ccc(Cl)cc1)C1Nc2ccccc2S(=O)(=O)n2cccc21)c1ccccc1` (stereo not drawn) [RS-786, 11-(4-Chlorophenybenzoyloxymethylene)10,11-dihydro pyrrolo[1,2-b][1,2,5]benzothiadiazepine 5,5-dioxide], for which the DNA fragmentation result (in the assay on K562 cell line [1]; in assay [2]; in assay [3]) was “not present” in each case.
Turning to `O=C(O)CC1Nc2ccccc2S(=O)(=O)n2cccc21` (stereo not drawn) [RS-761, 10,11-dihydropyrrolo[1,2-b][1,2,5]benzothiadiazepine-11-acetic 5,5-dioxide acid], the DNA fragmentation result (with K562 cell line [1]; in [2]; in assay [3]) was “not present” each time.
